Target: Mu-type opioid receptor (Homo sapiens, UniProt P35372)
Experiment: Detection of MOR cAMP Agonist Activity: The experiment was performed using a cAMP detection kit from Cisbio (Cisbio #62AM4PEJ).

Sequence of Mu-type opioid receptor (P35372 whole entry): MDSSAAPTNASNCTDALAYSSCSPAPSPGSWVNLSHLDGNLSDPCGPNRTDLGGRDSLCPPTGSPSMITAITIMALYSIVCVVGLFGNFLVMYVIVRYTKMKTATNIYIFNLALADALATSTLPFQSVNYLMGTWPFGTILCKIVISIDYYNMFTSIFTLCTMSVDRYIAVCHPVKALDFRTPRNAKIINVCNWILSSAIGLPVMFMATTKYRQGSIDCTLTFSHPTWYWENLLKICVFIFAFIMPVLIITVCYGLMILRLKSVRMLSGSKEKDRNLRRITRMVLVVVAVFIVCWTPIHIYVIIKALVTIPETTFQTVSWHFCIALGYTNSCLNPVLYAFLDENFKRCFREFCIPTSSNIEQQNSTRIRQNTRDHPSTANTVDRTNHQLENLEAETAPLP

| SMILES | EC50 [nM] |
| --- | --- |
| c1ccc([C@]2(CCNCc3scc4c3CCC4)CCO[C@]3(CCOC3)C2)nc1 | 0.47 |
| Fc1ccc([C@]2(CCNCc3scc4c3CCC4)CCO[C@]3(CCOC3)C2)nc1 | 0.1 |
| Cc1cccc(CNCC[C@@]2(c3ccc(F)cn3)CCO[C@]3(CCOC3)C2)c1 | 0.1 |
| c1ccc([C@]2(CCNCc3cc4c(s3)CCC4)CCOC3(CCCC3)C2)nc1 | 0.9 |
| c1ccc([C@]2(CCN[C@H]3CCc4ccccc43)CCO[C@]3(CCOC3)C2)nc1 | 4 |

Source: ChEMBL document CHEMBL5728734, “2,6-dioxaspiro [4,5] decane derivatives and preparation method therefor and pharmaceutical applications thereof” (2021)
